Where a name gives a salt, the structure may show the parent alone. Read-outs that look alike come from different tables or passages of the source.
Test system: Acinetobacter baumannii ATCC17978
Assay: Antimicrobial susceptibility testing: 90% growth inhibitory concentration (IC90) determination, Iso-Sensitest broth
Type: cell-based
In short: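 A. baumannii ATCC17978 grown in Iso-Sensitest broth across 10 compound concentrations at 35±2 °C.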

[1] = Acinetobacter baumannii, ATCC17978, 16 h, read-out: ATCC17978 IC90, 90% growth inhibitory concentration, Acinetobacter baumannii ATCC17978, Iso-Sensitest broth, OD 600 nm over 16 h
[2] = 90% growth inhibitory concentration, Acinetobacter baumannii ATCC17978, Iso-Sensitest broth, OD 600 nm over 16 h, read-out: ATCC17978 IC90

IC90 [2] [nM]	SMILES	IC90 [1] [nM]
–	Cc1cc(Nc2nccn3c(-c4ccc(OC(F)F)cc4)cnc23)ccc1C(=O)N1CCN(C(=O)N2CCN[C@@H](C(=O)O)C2)CC1 [Example 445, (2R)-4-[4-[4-[[3-[4-(difluoromethoxy)phenyl]imi-dazo[1,2-a]pyrazin-8-yl]amino]-2-methylbenzoyl]piperazine-1-carbonyl]piperazine-2-carboxylic acid; hydrochloride]	1900
2000	Cc1cc(Nc2nccn3c(-c4ccc(OS(C)(=O)=O)c(F)c4F)cnc23)ccc1C(=O)N1CCN(C(=O)C2CCNCC2)CC1 [Example 446, [2,3-difluoro-4-[8-[3-methyl-4-[4-(piperidine-4-carbonyl)piperazine-1-carbonyl]anilino]imidazo[1,2-a]pyrazin-3-yl]phenyl] methanesulfonate]	–
–	Cc1cc(Nc2nccn3c(-c4ccc(OC(F)F)cc4)cnc23)ccc1C(=O)N1CCN(C(=O)C2=CCNCC2)CC1 [Example 447, [4-[[3-[4-(difluoromethoxy)phenyl]imi-dazo[1,2-a]pyrazin-8-yl]amino]-2-methylphenyl]-[4-(1,2,3,6-tetrahydropyridine-4-carbonyl)piperazin-1-yl]methanone; hydrochloride]	2000
–	Cc1cc(Nc2nccn3c(-c4ccc(OC(F)F)cc4)cnc23)ccc1C(=O)N1CCN(C(=O)[C@@H](N)CC(=O)O)CC1 [Example 448, (3S)-3-amino-4-[4-[4-[[3-[4-(difluoromethoxy)phenyl]imi-dazo[1,2-a]pyrazin-8-yl]amino]-2-methylbenzoyl]piperazin-1-yl]-4-oxobutanoic acid; hydrochloride]	2200
2400	Cc1cc(Nc2nccn3c(-c4ccc(OCC#N)c(F)c4F)cnc23)ccc1C(=O)N1CCN(C(=O)N2CCN[C@@H](C(=O)O)C2)CC1 [Example 450, (2R)-4-[4-[4-[[3-[4-(cyanomethoxy)-2,3-difluorophenyl]imidazo[1,2-a]pyrazin-8-yl]amino]-2-methylbenzoyl]piperazine-1-carbonyl]piperazine-2-carboxylic acid]	–
2700	CCc1cc(Nc2nccn3c(-c4ccc(OS(C)(=O)=O)c(F)c4F)cnc23)ccc1C(=O)N1CCN(C(=O)C2CCNCC2)CC1 [Example 451, [4-[8-[3-ethyl-4-[4-(piperidine-4-carbonyl)piperazine-1-carobnyl]anilino]imidazo[1,2-a]pyrazin-3-yl]-2,3-difluorophenyl] methanesulfonate; formic acid]	–
–	Cc1cc(Nc2nccn3c(-c4ccc(OC(F)F)cc4)cnc23)ccc1C(=O)N1CCN(C(=O)[C@@H](N)CCCCN)CC1 [Example 452, (2S)-2,6-diamino-1-[4-[4-[[3-[4-(difluoromethoxy)phenyl]imi-dazo[1,2-a]pyrazin-8-yl]amino]-2-methylbenzoyl]piperazin-1-yl]hexan-1-one; hydrochloride]	3600
–	Cc1cc(Nc2nccn3c(-c4ccc(OS(C)(=O)=O)c(F)c4F)cnc23)ccc1C(=O)N1CCN(C(=O)[C@@H]2C[C@@H](O)CN2)CC1 [Example 453, [2,3-difluoro-4-[8-[4-[4-[(2S,4R)-4-hydroxypyrrolidine-2-carbonyl]piperazine-1-carbonyl]-3-methylanilino]imidazo[1,2-a]pyrazin-3-yl]phenyl] methanesulfonate; formic acid]	4200
–	CCc1cc(Nc2nccn3c(-c4ccc(OS(C)(=O)=O)c(F)c4F)cnc23)ccc1C(=O)N1CCN(C(=O)[C@@H]2C[C@@H](O)CN2)CC1 [Example 454, [4-[8-[3-ethyl-4-[4-[(2S,4R)-4-hydroxypyrrolidine-2-carbonyl]piperazine-1-carbonyl]anilino]imidazo[1,2-a]pyrazin-3-yl]-2,3-difluorophenyl] methanesulfonate; formic acid]	4700
–	CC[C@@]1(O)CN[C@H](C(=O)N2CCN(C(=O)c3ccc(Nc4nccn5c(-c6ccc(OC)c(F)c6F)cnc45)cc3C)CC2)C1 [Example 456, [4-[[3-(2,3-difluoro-4-methoxyphenyl)imidazo[1,2-a]pyrazin-8-yl]amino]-2-methylphenyl]-[4-[(2S,4S)-4-ethyl-4-hydroxypyrrolidine-2-carbonyl]piperazin-1-yl]methanone; formic acid]	68

— patent publication US20230011869A1 (Hoffmann-La Roche Inc., priority 2018, published 2023)
